Test results: US12065428B2, “Anti-viral compounds” (Aligos Therapeutics, Inc., priority 2021, dated 2024)
Where two headings read alike, the source gives them in different places.

Columns and labels:
[1] = system: SARS-CoV-2-GHB-03021/2020; assay: microbe, parasite or virus in culture; format: cell-based
[2] = biological target: T1, SARS-Cov-2 3CLpro (Severe acute respiratory syndrome coronavirus 2, UniProt P0DTD1); assay: SARS-Cov-2 3CLpro and HRV3C duplex assay (SAMDI-MS): 3CLpro; format: biochemical; details: 3CLpro, duplex assay, 30 mins preincubation; class symbols; read-out: SARS-Cov-2 IC50
T1 construct: SARS-Cov-2 3CLpro and HRV3C Duplex Assay

[3] = Cytotoxicity plates without OC43 virus in HeLa cells; format: cell-based; details: human, HeLa cells (uninfected)
Procedure: The human beta-coronavirus OC43 was purchased from ATCC (Manassas, VA) and propagated using HCT-8 human colorectal epithelial cells (ATCC). HeLa human cervical epithelial cells (ATCC) were used as susceptible host cell lines and were cultured using EMEM media, supplemented with 10% fetal bovine serum (FBS), 1% (v/v) penicillin/streptomycin (P/S), 1% (v/v) HEPES and 1% (v/v) cellgro Glutagro™ supplement (all Corning, Manassas, VA) at 37° C. For the OC43 antiviral assay, 1.5×10^4 HeLa cells per well were plated in 100 μL complete media in white 96-well plates with clear bottoms at 37° C. for up to 24 h to facilitate attachment and allow cells to recover from seeding stresses. Next day, the cell culture medium was removed. Serially diluted compounds in 100 μL assay media (EMEM, 2% FBS, 1% P/S, 1% cellgro Glutagro™ supplement, 1% HEPES) were added to the cells and incubated for 4H at 37° C. in a humidified 5% CO2 incubator. 100 μL of OC43 virus stock was diluted to a concentration known to produce optimal cytopathic effect, inducing 80-90% reduction in cell viability. 96-well plates were incubated for 6 (HeLa) days at 33° C.; each plate contains uninfected control wells as well as virus-infected wells that were not treated with compound. Cytotoxicity plates without the addition of OC43 virus were carried out in parallel. At the end of the incubation period, 100 μL cell culture supernatant was replaced with 100 μL cell-titer-glo reagent (Promega, Madison, WI) and incubated for at least 10 min at rt prior to measuring luminescence. Luminescence was measured on a Perkin Elmer (Waltham, MA) Envision plate reader. Antiviral % inhibition was calculated as follows: [(Compound treated cells infected sample)−(no compound infected control)]/[(Uninfected control)−(no compound infected control)]*100; Using GraphPad (San Diego, CA) prism software version 8.3.1, the antiviral dose-response plot was generated as a sigmoidal fit, log(inhibitor) vs response-variable slope (four parameters) model and the EC50 was calculated which is the predicted compound concentration corresponding to a 50% inhibition of the viral cytopathic effect.

[4] = biological target: T2, human cathepsin L (Homo sapiens, UniProt P07711); assay: Cathepsin L assay (Z-FR-AMC fluorescence); format: biochemical; details: 10 pM human cathepsin L, 30 mins preincubation; class symbols
T2 construct: purchased R&D Systems
Procedure: For the cathepsin L assay, 10 pM of human cathepsin L (R&D Systems; Minneapolis, MN) was preincubated for 30 mins with test compounds. Reactions were initiated by the addition of a peptide substrate Z-FR-AMC (final concentration 2 μM, Anaspec; Fremont, CA). Fluorescence was measured at 2-minute intervals for 30 mins using a 355/460 excitation/emission filter module on an Envision plate reader (Perkin Elmer; Waltham, MA). The IC50 values were calculated for each assay by fitting the curves using a four-parameter equation in GraphPad Prism.

[5] = biological target: T3, HRV3C (Human rhinovirus 14, UniProt P03303); assay: biochemical
T3 construct: SARS-Cov-2 3CLpro and HRV3C Duplex Assay

[6] = system: human beta-coronavirus OC43; assay: OC43 coronavirus assay in HeLa cells (cytopathic effect, cell-titer-glo); format: cell-based
[7] = Severe acute respiratory syndrome coronavirus 2, Vero C1008, 96 h; read-out: VeroE6 + CP (EC50)
[8] = HRV3C, duplex assay, 30 mins preincubation, class symbols, read-out: HRV IC50
[9] = Betacoronavirus 1, 144 h, OC43 in HeLa cells, 6 days at 33° C., class symbols, read-out: EC50

T2 sequence (P07711 114-333): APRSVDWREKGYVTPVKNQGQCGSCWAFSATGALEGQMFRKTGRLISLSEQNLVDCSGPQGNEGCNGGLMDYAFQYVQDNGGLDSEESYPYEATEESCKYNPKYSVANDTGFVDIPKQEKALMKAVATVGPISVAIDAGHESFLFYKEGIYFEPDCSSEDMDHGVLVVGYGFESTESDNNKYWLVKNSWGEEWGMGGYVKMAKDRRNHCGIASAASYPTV
T3 sequence (P03303 1538-1719): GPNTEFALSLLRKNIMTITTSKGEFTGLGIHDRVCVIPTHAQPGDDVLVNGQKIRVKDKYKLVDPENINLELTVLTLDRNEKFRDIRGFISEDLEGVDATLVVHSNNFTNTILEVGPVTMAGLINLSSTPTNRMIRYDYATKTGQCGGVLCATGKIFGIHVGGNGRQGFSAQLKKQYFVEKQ

Compound | EC50 [1, 7] | IC50 [2] | CC50 at 6 days ([3]; class symbols) | IC50 [4] | IC50 [5, 8] | EC50 [6, 9] | IC50 ([5]; read-out: HRV IC50) | EC50 ([6]; Betacoronavirus 1, OC43, HeLa) | EC50 ([1]; Severe acute respiratory syndrome coronavirus 2, Vero C1008, 96 h, read-out: VeroE6 + CP (EC50)) | IC50 [5] | CC50 at 6 days ([3]; numeric bound, unit inferred)
O=C(NC1CC1)C(=O)C(C[C@@H]1CCNC1=O)NC(=O)[C@@H]1CC2(CCN1C(=O)c1cc3cccc4c3n1CCC4)CC2 (stereo partly drawn) [Compound 19, 3-{[(5S)-6-{1-azatricyclo[6.3.1.0^{4,12}]dodeca-2,4(12),5,7-tetraene-2-carbonyl}-6-azaspiro[2.5]octan-5-yl]formamido}-N-cyclopropyl-2-oxo-4-[(3S)-2-oxopyrrolidin-3-yl]butanamide] | < 1000 nM | < 20 nM | ≥ 100000 nM | 1000 to 10000 nM | 200 to 2000 nM | 1000 to 10000 nM |  |  |  |  | 
O=C(NC1CC1)C(=O)[C@H](C[C@@H]1CCNC1=O)NC(=O)[C@@H]1CC2(CCN1C(=O)c1cn3ccccc3n1)CC2 [Compound 20, (3S)—N-cyclopropyl-3-{[(5S)-6-{imidazo[1,2-a]pyridine-2-carbonyl}-6-azaspiro[2.5]octan-5-yl]formamido}-2-oxo-4-[(3S)-2-oxopyrrolidin-3-yl]butanamide] | > 50000 nM | 200 to 2000 nM | ≥ 100000 nM | ≥ 10000 nM |  |  | > 10000 nM | > 10000 nM |  |  | 
O=C(NC1CC1)C(=O)[C@H](C[C@@H]1CCNC1=O)NC(=O)[C@@H]1CC2(CCN1C(=O)c1ccc3ccccc3c1)CC2 [Compound 21, (S)-6-(2-naphthoyl)-N—((S)-4-(cyclopropylamino)-3,4-dioxo-1-((S)-2-oxopyrrolidin-3-yl)butan-2-yl)-6-azaspiro[2.5]octane-5-carboxamide] | < 1000 nM | < 20 nM | ≥ 100000 nM | 1000 to 10000 nM | 200 to 2000 nM | 100 to 1000 nM |  |  |  |  | 
O=C(NC1CC1)C(=O)C(C[C@@H]1CCNC1=O)NC(=O)[C@@H]1CC2(CCN1C(=O)c1cc3ccccc3n1-c1ccccc1)CC2 (stereo partly drawn) [Compound 22, N-cyclopropyl-2-oxo-4-[(3S)-2-oxopyrrolidin-3-yl]-3-{[(5S)-6-(1-phenylindole-2-carbonyl)-6-azaspiro[2.5]octan-5-yl]formamido}butanamide] |  | < 20 nM | 10000 to 100000 nM | ≥ 10000 nM |  | 100 to 1000 nM |  |  | < 1000 nM | 200 to 2000 nM | 
O=C(NC1CC1)C(=O)C(C[C@@H]1CCNC1=O)NC(=O)[C@@H]1CC2(CCN1C(=O)c1nc3ccccc3s1)CC2 (stereo partly drawn) [Compound 23, 3-{[(5S)-6-(1,3-benzothiazole-2-carbonyl)-6-azaspiro[2.5]octan-5-yl]formamido}-N-cyclopropyl-2-oxo-4-[(3S)-2-oxopyrrolidin-3-yl]butanamide] | 1000 to 10000 nM | 20 to 200 nM | ≥ 100000 nM | ≥ 10000 nM | 2000 to 20000 nM | 100 to 1000 nM |  |  |  |  | 
O=C(NC1CC1)C(=O)C(C[C@@H]1CCNC1=O)NC(=O)[C@@H]1CC2(CCN1C(=O)c1cnn(-c3ccccc3)n1)CC2 (stereo partly drawn) [Compound 24] | 1000 to 10000 nM | 200 to 2000 nM | ≥ 100000 nM | ≥ 10000 nM | 200 to 2000 nM | 1000 to 10000 nM |  |  |  |  | 
O=C(NC1CC1)C(=O)C(C[C@@H]1CCNC1=O)NC(=O)[C@@H]1[C@@H]2C[C@@H](CC23CC3)N1C(=O)c1cc2ccccc2s1 (stereo partly drawn) [Compound 25, 3-[(1R,4S,6S)-5-(1-benzothiophene-2-carbonyl)-5-azaspiro[bicyclo[2.2.1]heptane-2,1′-cyclopropan]-6-ylformamido]-N-cyclopropyl-2-oxo-4-[(3S)-2-oxopyrrolidin-3-yl]butanamide] | 1000 to 10000 nM | 20 to 200 nM | ≥ 100000 nM | ≥ 10000 nM | 200 to 2000 nM | 1000 to 10000 nM |  |  |  |  | 
O=C(NC1CC1)C(=O)C(C[C@@H]1CCNC1=O)NC(=O)[C@@H]1[C@@H]2C[C@@H](CC23CC3)N1C(=O)c1nc(-c2ccccc2)cs1 (stereo partly drawn) [Compound 26, N-cyclopropyl-2-oxo-4-[(3S)-2-oxopyrrolidin-3-yl]-3-[(1R,4S,6S)-5-(4-phenyl-1,3-thiazole-2-carbonyl)-5-azaspiro[bicyclo[2.2.1]heptane-2,1′-cyclopropan]-6-ylformamido]butanamide] | 1000 to 10000 nM | 200 to 2000 nM | ≥ 100000 nM | ≥ 10000 nM | 200 to 2000 nM | 1000 to 10000 nM |  |  |  |  | 
CC(C)n1c(C(=O)N2CCC3(CC3)C[C@H]2C(=O)N[C@@H](C[C@@H]2CCNC2=O)C(=O)C(=O)NC2CC2)cc2ccccc21 [Compound 27] | < 1000 nM | < 20 nM | ≥ 100000 nM | ≥ 10000 nM | 200 to 2000 nM | 100 to 1000 nM |  |  |  |  | 
O=C(NC1CC1)C(=O)[C@H](C[C@@H]1CCNC1=O)NC(=O)[C@@H]1CC2(CCN1C(=O)c1csc3ccccc13)CC2 [Compound 28] | < 1000 nM | < 20 nM | ≥ 100000 nM | ≥ 10000 nM | 20 to 200 nM | 1000 to 10000 nM |  |  |  |  | 
COc1ccc2cc(C(=O)N3CCC4(CC4)C[C@H]3C(=O)N[C@@H](C[C@@H]3CCNC3=O)C(=O)C(=O)NC3CC3)n(C)c2c1 [Compound 29] | < 1000 nM | < 20 nM | ≥ 100000 nM | ≥ 10000 nM | 2000 to 20000 nM | 100 to 1000 nM |  |  |  |  | 
Cc1ccc2cc(C(=O)N3CCC4(CC4)C[C@H]3C(=O)N[C@@H](C[C@@H]3CCNC3=O)C(=O)C(=O)NC3CC3)n(C)c2c1 [Compound 30] | < 1000 nM | 20 to 200 nM | ≥ 100000 nM | ≥ 10000 nM |  | 100 to 1000 nM | > 10000 nM |  |  |  | 
Cn1c(C(=O)N2CCC3(CC3)C[C@H]2C(=O)N[C@@H](C[C@@H]2CCNC2=O)C(=O)C(=O)NC2CC2)cc2ccc(Cl)cc21 [Compound 31] | < 1000 nM | < 20 nM | ≥ 100000 nM | ≥ 10000 nM | 2000 to 20000 nM | 100 to 1000 nM |  |  |  |  | 
O=C(NC1CC1)C(=O)[C@H](C[C@@H]1CCNC1=O)NC(=O)[C@@H]1CC2(CCN1C(=O)[C@@H]1CCCc3ccccc31)CC2 [Compound 32] | < 1000 nM | 20 to 200 nM | ≥ 100000 nM | ≥ 10000 nM | 200 to 2000 nM | 1000 to 10000 nM |  |  |  |  | 
O=C(NC1CC1)C(=O)[C@H](C[C@@H]1CCNC1=O)NC(=O)[C@@H]1CC2(CCN1C(=O)[C@H]1CCCc3ccccc31)CC2 [Compound 33] | < 1000 nM | 20 to 200 nM | ≥ 100000 nM | ≥ 10000 nM | 200 to 2000 nM | 1000 to 10000 nM |  |  |  |  | 
CC(C)(C)[C@H](NC(=O)C(F)(F)F)C(=O)N1CCC2(CC2)C[C@H]1C(=O)N[C@H](C#N)C[C@@H]1CCNC1=O [Compound 35, (S)—N—((S)-1-cyano-2-((S)-2-oxopyrrolidin-3-yl)ethyl)-6-((S)-3,3-dimethyl-2-(2,2,2-trifluoroacetamido)butanoyl)-6-azaspiro[2.5]octane-5-carboxamide] | < 1000 nM | < 20 nM | ≥ 100000 nM | ≥ 10000 nM |  | 100 to 1000 nM | > 10000 nM |  |  |  | 
COc1cccc(-c2csc(C(=O)N3CCC4(CC4)C[C@H]3C(=O)N[C@@H](C[C@@H]3CCNC3=O)C(=O)C(=O)NC3CC3)n2)c1 [Compound 36] | 1000 to 10000 nM | 200 to 2000 nM |  | ≥ 10000 nM | 2000 to 20000 nM | 100 to 1000 nM |  |  |  |  | > 100000 nM
COc1ccc(-c2csc(C(=O)N3CCC4(CC4)C[C@H]3C(=O)N[C@@H](C[C@@H]3CCNC3=O)C(=O)C(=O)NC3CC3)n2)cc1 [Compound 37] | 1000 to 10000 nM | 200 to 2000 nM |  | ≥ 10000 nM | 200 to 2000 nM | 100 to 1000 nM |  |  |  |  | > 100000 nM
